Laboratory results taken from PMC11012799 (Molecules, 2024).

Key:
HeLa cells = test: Intracellular ROS measurement (H2DCFDA, flow cytometry); assay type: cell-based, human; conditions: 24 h, concentration equal to IC50, H2DCFDA staining
Protocol: The intracellular ROS levels were evaluated using 2′,7′-dichlorofluorescein diacetate (H2DCFDA) staining. This cell membrane-permeable probe is deacetylated by cellular esterases to a non-fluorescent compound, which is then oxidized by ROS to 2′,7′-dichlorofluorescein (DCF), which remains in cells, is not removed from them, and emits strong fluorescence that can be quantified using a flow cytometer. To evaluate oxidative stress, HeLa cells were treated with the respective compound at a concentration equal to its IC50 value for 24 h, followed by staining with H2DCFDA. […]
Figure 5 Intracellular ROS generation in HeLa cells after treatment with 5 (blue) and 7 (green) for 24 h at 37 °C and 5% CO2. […] Oxidative stress was evaluated using H2DCFDA by flow cytometry. Data are expressed as the mean ± SD of two experiments. Statistical significance in comparison with the untreated control, measured by two-way analysis of variance (ANOVA) followed by Bonferroni multiple comparison test, is indicated by asterisks: (*) p < 0.05.
Reactive oxygen species measurement: The intracellular level of ROS was analysed by staining with 2′,7′–dichlorofluorescein diacetate (H2DCFDA, Sigma-Aldrich, Darmstadt, Germany). […] This product is highly fluorescent and can be detected on a flow cytometer. […]

[1] = test system: Klebsiella pneumoniae ATCC 13883; test: MIC, two-fold microdilution (EUCAST), K. pneumoniae reference strain; assay type: cell-based; conditions: Klebsiella pneumoniae, ATCC13883, 18 h, read-out: MIC (µM) Klebsiella pneumoniae ATCC 13883
Text: A panel of reference bacteria, including Escherichia coli NCTC 8196, Staphylococcus aureus ATCC 6538, Klebsiella pneumoniae ATCC 13883, and Pseudomonas aeruginosa NCTC 6749, was used to assess the antibacterial activity of the nine tested aziridine phosphines (1–4) and aziridine phosphine oxides (5–9). The two-fold microdilution method, following EUCAST guidelines, was used to determine a minimal inhibitory concentration (MIC) of each compound, as presented in Table S1.
Antibacterial activity: The in vitro antibacterial activity of nine tested aziridine phosphines (1–4) and aziridine phosphine oxides (5–9) was evaluated against reference bacterial strains (E. coli NCTC 8196, S. aureus ATCC 6538, K. pneumoniae ATCC 13883, P. aeruginosa NCTC 6749) and 12 S. aureus clinical isolates, including two methicillin-resistant isolates (MRSA, D15 and D17) obtained from infected patients hospitalized at the Oncological Hospital in Lodz (Poland). All strains were kept frozen at −80 °C in Tryptic Soy Broth with 15% glycerol. The minimal inhibitory concentration (MIC) is defined as the lowest concentration of the compound that prevents visible growth of bacteria using the microdilution method followed the EUCAST guidelines. Each compound was added to 96-well microplates in two-fold dilutions at concentrations from 3.125 to 100 μM in Mueller–Hinton broth. […] Bacterial culture was added into wells at a density of 5 × 10^5 CFU mL^−1, and plates were incubated at 37 °C for 18 h. As a positive control, an untreated bacterial culture was used, and a clear culture medium served as a negative control. The optical density at OD600 was measured using the SpectraMax i3 Multi-Mode Platform (Molecular Devices, San Jose, CA, USA). Ciprofloxacin hydrochloride (CIP, Sigma-Aldrich, Darmstadt, Germany) was used as a reference antimicrobial drug.

SMILES	intracellular ROS levels compared to untreated control (HeLa cells)	MIC [1]
CC(C)[C@@H]1CN1c1ccccc1P(=O)(c1ccccc1)c1ccccc1 [Compound 5]	the effect was significant only for 5	> 100 µM
CC(C)C[C@H]1CN1c1ccccc1P(=O)(c1ccccc1)c1ccccc1 [Compound 7]	increase in ROS levels	> 100 µM
